# Experiments:
# [1] = biological target: T1, human B1R receptor (hB1R) (Homo sapiens, UniProt P46663); assay: Functional investigation on the bradykinin receptor 1 (B1R), FLIPR Ca2+ assay, hB1R cells; assay type: cell-based
# T1 construct: expressed in transfected cells; host or cells: CHO K1 cells
# T1 sequence (P46663 1-353): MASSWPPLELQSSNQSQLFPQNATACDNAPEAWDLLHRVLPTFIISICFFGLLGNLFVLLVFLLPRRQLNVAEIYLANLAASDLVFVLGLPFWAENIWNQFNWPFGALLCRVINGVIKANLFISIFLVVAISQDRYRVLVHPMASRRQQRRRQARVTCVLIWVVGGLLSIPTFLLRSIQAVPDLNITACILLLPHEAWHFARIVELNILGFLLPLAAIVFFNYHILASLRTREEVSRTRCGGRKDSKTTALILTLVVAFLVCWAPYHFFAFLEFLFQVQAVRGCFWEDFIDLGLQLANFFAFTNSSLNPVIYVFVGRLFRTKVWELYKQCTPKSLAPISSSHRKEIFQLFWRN
# How it was run: (§1)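 Stably transfected CHO K1 cells expressing human or rat B1R were loaded with Fluo-4, and Ca2+ fluorescence was read on a FLIPR. Compound (10 μM) was added first to measure activation. After 10–20 min, agonist at EC80 was added (Lys-Des-Arg9-bradykinin for hB1R, Des-Arg9-bradykinin for rB1R) to give % inhibition. IC50 values came from concentration series.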
# [2] = biological target: T2, B1R receptor of the rat (rB1R) (Rattus norvegicus, UniProt P97583); assay: Functional investigation on the bradykinin receptor 1 (B1R), FLIPR Ca2+ assay, rB1R cells; assay type: cell-based
# T2 construct: expressed in transfected cells; host or cells: CHO K1 cells
# T2 sequence (P97583 1-337): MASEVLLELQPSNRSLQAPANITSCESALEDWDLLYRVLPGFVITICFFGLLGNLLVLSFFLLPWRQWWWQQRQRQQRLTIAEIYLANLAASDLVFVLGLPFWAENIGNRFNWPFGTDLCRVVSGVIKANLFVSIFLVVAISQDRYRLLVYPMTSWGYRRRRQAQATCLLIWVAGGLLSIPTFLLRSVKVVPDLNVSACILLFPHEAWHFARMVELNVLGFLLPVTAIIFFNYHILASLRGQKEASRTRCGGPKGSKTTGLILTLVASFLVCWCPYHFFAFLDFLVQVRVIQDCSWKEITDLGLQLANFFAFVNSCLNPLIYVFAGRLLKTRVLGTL
# How it was run: as §1
inhibition at 10 µM [1] [%],inhibition at 10 µM [2] [%],Compound
58,90,"COc1cc(C)c(S(=O)(=O)N(C)C(C)c2nc3cccc(C(=O)N4CCC5(CCN(C(=O)c6cnccn6)CC5)CC4)c3[nH]2)c(C)c1 (stereo not drawn) [I_CC-47, 4-Methoxy-N,2,6-trimethyl-N-[1-[7-[9-(pyrazine-2-carbonyl)-3,9-diazaspiro[5.5]undecane-3-carbonyl]-1H-benzoimidazol-2-yl]-ethyl]-benzenesulfonic acid amide]"
20,103,"COc1cc(C)c(S(=O)(=O)N(C)C(C)c2nc3cccc(C(=O)N4CCC5(CC4)CCN(S(=O)(=O)c4ccccc4C#N)CC5)c3[nH]2)c(C)c1 (stereo not drawn) [I_CC-59, N-[1-[7-[9-[(2-Cyano-phenyl)sulfonyl]-3,9-diazaspiro[5.5]undecane-3-carbonyl]-1H-benzoimidazol-2-yl]-ethyl]-4-methoxy-N,2,6-trimethyl-benzenesulfonic acid amide]"
100,100,"COc1cc(C)c(S(=O)(=O)N(C)Cc2nc3cccc(C(=O)N4CCC5(CC4)CCN(c4ccncc4)CC5)c3[nH]2)c(C)c1 [I_CC-03, 4-methoxy-N,2,6-trimethyl-N-[[7-(3-pyridin-4-yl-3,9-diazaspiro[5.5]undecane-9-carbonyl)-1H-benzoimidazol-2-yl]-methyl]-benzenesulfonic acid amide]"
100,105,"COc1cc(C)c(C(=O)N(C)Cc2nc3cccc(C(=O)N4CCC5(CC4)CCN(c4ccncc4)CC5)c3[nH]2)c(C)c1 [I_CC-23, 4-methoxy-N,2,6-trimethyl-N-[[7-(3-pyridin-4-yl-3,9-diazaspiro[5.5]undecane-9-carbonyl)-1H-benzoimidazol-2-yl]-methyl]-benzamide]"
63,104,"COc1cc(C)c(S(=O)(=O)N(C)C(C)c2nc3cccc(C(=O)N4CCC5(CCN(Cc6cc(F)ccc6F)CC5)CC4)c3[nH]2)c(C)c1 (stereo not drawn) [I_CC-31, N-[1-[7-[9-[(2,5-Difluoro-phenyl)-methyl]-3,9-diazaspiro[5.5]undecane-3-carbonyl]-1H-benzoimidazol-2-yl]-ethyl]-4-methoxy-N,2,6-trimethyl-benzenesulfonic acid amide]"

Compound,inhibition at 10 µM [1] [%],inhibition at 10 µM [2] [%]
"COc1cc(C)c(S(=O)(=O)N(C)C(C)c2nc3cccc(C(=O)N4CCC5(CC4)CCN(C(=O)C4CC4)CC5)c3[nH]2)c(C)c1 (stereo not drawn) [I_CC-50, N-[1-[7-[9-(Cyclopropanecarbonyl)-3,9-diazaspiro[5.5]undecane-3-carbonyl]-1H-benzoimidazol-2-yl]-ethyl]-4-methoxy-N,2,6-trimethyl-benzenesulfonic acid amide]",62,88
